Entries after “also recorded” stand apart in the source; their conditions may differ. Ends that are not written are not given here.

Here are results for one sequence from PMC11681159, “Bee pollen peptides as potent tyrosinase inhibitors with anti-melanogenesis effects in murine b16f10 melanoma cells and zebrafish embryos” (Scientific Reports, 2024).

One experiment concerns zebrafish embryos. The experiment in a line: Melanin inhibitory assay in zebrafish embryos. It counts as in vivo. To be noted: 48 h after fertilization, vs control. As to the method: To perform the test of acute toxicity, a total of 20 fertilized zebrafish embryos were collected at around 4 h after fertilization and added to each well in a 12-well plate. These embryos then underwent treatment using different quantities of […] (2, 4, 6, 8, and 10 µM), while the negative control was distilled water and the positive control was 3,4-dichloroaniline. Incubation of the plate then took place until 48 h after fertilization at a temperature of 28.5 ± 1 °C. The test solutions were refreshed at 24 h after fertilization to allow the counting and removal of any dead embryos. Following exposure, a stereomicroscope (SZX16, Olympus, Japan) was used to record the embryo morphological effects. Meanwhile, a slightly modified version of a previously described melanin inhibitory assay was carried out[30]. The embryos were then homogenized using a cold lysis buffer (PBS pH 7.4, 1% Triton-X and 1% DMSF). The lysate then underwent 10 min of sonication before being placed in a centrifuge for 5 min at 10,000×g. The pellet was then removed from the centrifuge and dissolved in 200 µL of 1 N NaOH for 1 h at a temperature of 85 °C. This sample was subsequently vortexed and placed in the centrifuge for a further 5 min at 10,000×g. A microplate reader (Spectramax M5, Molecular Devices, USA) was then employed to determine the supernatant absorbance at 490 nm. Melanin content levels could then by calibrated by using the protein amount, and were reported in the form of a percentage compared to the untreated control. In the melanin inhibitory assay, the positive control used was phenylthiourea (PTU) solution (0.0015%).

A further experiment has as its system Trp-2. Kind of experiment: Western blot, TRP-2 protein. It counts as cell-based, mouse. Conditions: B16F10, 48 h. How it is done: (§1) Following this process, the cells were lysed using NP40 Cell Lysis Buffer with protease inhibitor cocktail supplementation. Next, 12% sodium dodecyl sulfate poly-acrylamide (SDS-PAGE) gel electrophoresis was used to extract equal quantities of protein from each sample, with subsequent transfer to PVD (polyvinylidene fluoride) membranes (Millipore, Bedford, MA, USA). The membrane was blocked overnight with 3% skimmed milk (w/v) in TBST with 0.5% Tween 20 at 4 °C and then washed thrice in TBST. The rabbit polyclonal anti-TYR antibody (dilution 1:1000), anti-TRP-1 antibody (dilution 1:1000), anti-TRP-2 antibody and anti-MITF antibody (dilution 1:1000) obtained from Abcam (USA), were used respectively to detect the TYR, TRP-1, TRP-2, and MITF bands. After thrice washing again in TBST, secondary antibodies (dilution 1:5000) were added to the membranes for 1 h of incubation at room temperature before another triplicate washing in TBST. Enhanced chemiluminescence horseradish peroxidase (HRP) substrates (GeneDirex, Taiwan) were then used in line with the guidance of the manufacturer to detect bound antibodies, while β-actin antibody was employed to evaluate the loading control. Gel band detection was performed using ImageJ software (version 1.54), available at https://imagej.net/ij/. The software facilitated the identification and quantification of protein expression levels.

For experiment [1], the system named is TYR in B16F10 melanoma cells. Kind of experiment: Cellular TYR assay. It counts as cell-based, mouse. Conditions: VY-9 1.6 µM, 48 h, L-DOPA, 490 nm. As to the method: In order to assess the rate of oxidation for L-DOPA, culture flasks were used to first grow B16F10 cells (1 × 10^5 cells/flask) for 24 h. […] Cell harvesting was conducted by trypsinization and the cells were then rinsed twice in cold PBS. In the next step, PBS buffer (0.2 mL, pH 6.8) which contained 1% (w/v) Triton X-100 and 1 mM PMSF was introduced to the lysed cell pellets, whereupon amounts of 100 µL of the lysed cells were added to a 96-well plate by pipette, along with 100 µL of 2 mM L-DOPA. This was followed by a one-hour incubation period while the temperature was maintained at 37 °C. A microplate reader was then used to detect the formation of dopachrome in the mixture at 490 nm. The findings are presented in terms of percentage of the control, while arbutin (0.2 mM) served as the positive control. Each test was carried out in triplicate, with the findings presented in the form of mean ± standard deviation.

A further experiment concerns B16F10 melanoma cells. Kind of experiment: Melanin content assay in B16F10 cells. It counts as cell-based, mouse. Conditions: VY-9 1.6 µM, 48 h, 405 nm. How it is done: In order to assess melanin content, culture flasks were used to grow B16F10 cells (1 × 10^5 cells/flask) for 24 h. […] Cell harvesting was conducted by trypsinization and the cells were then rinsed twice in cold PBS. The cell pellets were then dissolved in 0.3 mL of 1 N NaOH to produce solutions which were heated to 90 °C for a one-hour period. The lysates were then placed in a centrifuge for 10 min at 3,000 × g whereupon a microplate reader was used to assess the melanin quantity at 405 nm. The protein content in the supernatant was evaluated using the Bradford protein assay with the findings presented in the form of a percentage of the control. Arbutin (0.2 mM) served as the positive control. Each trial was carried out in triplicate, with results presented in the form of mean ± standard deviation.

Another experiment relates to Tyr. Kind of experiment: Western blot, TYR protein. To be noted: B16F10, 48 h. Type of experiment: cell-based, mouse. How it is done: as §1, with “Western blot analysis was performed to measure TYR (TYR, TRP-1, TRP-2, and MITF) in B16F10 cells in line with the approach discussed by Yoon et al.[65]. whereby the B16F10 cells underwent treatment for 48 h using various peptide amounts ([…]) and also with arbutin (0.2 mM). Following” for “Following”, “Enhanced chemiluminescence horseradish peroxidase (HRP) substrates (GeneDirex, Taiwan) were then used in line with the guidance of the manufacturer to detect bound antibodies, while β-actin antibody was employed to evaluate the loading control. Gel band detection was performed using ImageJ software (version 1.54), available at https://imagej.net/ij/.” left out
(A western blot detects proteins with antibodies after separation by electrophoresis.)

A further experiment deals with Mitf. The experiment in a line: Western blot, MITF protein. Type of experiment: cell-based, mouse. How it is done: as §1

Regarding “VDGYPAAGY [VY-9, Val-Asp-Gly-Tyr-Pro-Ala- Ala-Gly-Tyr]”, the melanin content result is listed as “anti-melanogenic effects were observed; also recorded: the lowest among all treatment groups, it did not achieve statistical significance” in the experiment on zebrafish embryos (4 µM) and “no significant reduction in melanin levels at any concentration” in the experiment on zebrafish embryos (any concentration (2–10 µM)). Besides, in the experiment on Trp-2 (0.2 µM), the “TRP-2 protein level vs control” value is on record as “decreased slightly compared to the control”. In addition, the “TRP-2 protein expression vs control” value in the experiment on Trp-2 (1.6 µM) is “the expression of all proteins decreased compared to the control”. The “concentration from which TRP-2 protein expression gradually decreased” value with Trp-2 (western blot) is 0.2 µM. In addition, the “cellular TYR activity, rate of inhibition” value in experiment [1] was found to be 44.88%. In addition, the “reduction in melanin content” value with B16F10 melanoma cells is 52.31%. Also, the “TYR protein expression vs control” value with Tyr (1.6 µM) is reported as “the expression of all proteins decreased compared to the control”. Besides, the “concentration from which TYR protein expression decreased” value with Tyr (western blot) is given as 0.4 µM. In the experiment with Mitf (1.6 µM, B16F10, 48 h), the “MITF protein expression vs control” value was “the expression of all proteins decreased compared to the control”. Further, the “concentration from which MITF protein expression decreased” value in the experiment with Mitf (B16F10, 48 h, western blot) stood at 0.4 µM. Besides, in the experiment with Mitf (VY-9 1.6 µM vs arbutin 0.2 mM, 48 h), the “MITF protein expression vs arbutin” value was “only MITF showed a lower expression level”.
